Experimental data reported in paper PMC10287566, “Signaling-specific inhibition of the CB1 receptor for cannabis use disorder: phase 1 and phase 2a randomized trials” (Nature Medicine, 2023).

Tests used:
[1] = system: healthy volunteers; assay: Phase 1 multiple-ascending-dose (MAD) study, safety
Experimental: Four single oral dose levels (0.2, 0.6, 2 and 6 mg) were given in the morning on day 1 in the SAD study, and three oral doses (0.6, 2 and 6 mg) were given in the morning of day 1 to day 7 in the MAD study, to independent dose cohorts. […] Each dose cohort comprised eight volunteers (six (5/1) active and two (1/1) placebo per dose level).
In the MAD study, each randomized participant received a single oral dose per day on days 1 through 7. […] As an approximation, plasma PK concentrations and parameters were presented for all participants as if occurring on day 7.
Participants were admitted to the research clinic at midday before dosing (day −1). In the SAD study, they remained in-house until day 8 for PK and PD samples and safety assessments. In the MAD study, participants remained in-house until day 14 and returned to the research facility on an outpatient basis to have PK and safety assessments at 216 h and 264 h (day 16 and day 18) after their last dose (day 7). Safety monitoring (physical examinations, vital sign measurements, 12-lead ECGs, clinical safety laboratory tests and AE monitoring) were performed throughout the studies. Psychometrics tests (Bond & Lader VAS, Addiction Research Center Inventory (49-item short form) (ARCI-49) and Profile of Mood States 65 self-report items (POMS-65)) and the Columbia-Suicide Severity Rating Scale (C-SSRS) test were performed at baseline, before dose and at 4 h and 24 h after dose on day 1 and day 7 (MAD study, only) and C-SSRS only at 24 h.
All participants who had AEs, whether considered associated with the use of the investigational product or not, were monitored for as long as needed to determine resolution.

[2] = GLP mutagenic and genotoxic studies (Ames, chromosome aberration, micronucleus); conditions: GLP in vitro and in vivo studies
Experimental: The dose of 816 µg per plate is approximately a concentration of 84 µM.
Human lymphocytes were taken from young (18–35 years old) healthy non-smoker individuals.
This assay was carried out both with and without metabolic activation using Aroclor 1254-induced S9 from rat livers (5%). In the test performed without metabolic activation, two treatment durations were studied: (1) 4 h + 16 h recovery period (short-term treatment) and (2) 20 h without recovery period (continuous treatment). In the test performed with metabolic activation, the treatment period of 4 h + 16 h recovery period with 5% S9 mix was used.
As a control for the genotoxicity induction, a single i.p. injection 24 h before sampling of the reference substance cyclophosphamide (CPA, Baxter, batch 5K044J in NaCl at 0.9% in distilled water, at a dose of 25 mg kg^−1 under a volume of 10 ml kg^−1) was used.

[3] = system: mice; assay: THC-induced impairment of reality testing; type: in vivo
[4] = system: mice; assay: THC-induced increase in food intake (fasting-refeeding); type: in vivo
[5] = system: AR (androgen receptor); assay: Eurofins binding screen; conditions: 10 µM

COc1ccc(CO[C@H]2CC[C@@]3(C)C(=CC[C@H]4[C@@H]5CC[C@H](C(C)=O)[C@@]5(C)CC[C@@H]43)C2)cc1 [AEF0117, 3β-(4-methoxybenzyloxy)pregn-5-en-20-one]
Number of TEAEs ([1]; 0.6 mg/d 7 d): 7 E | Number of participants with a TEAE leading to discontinuation ([1]; 0.6 mg/d 7 d): 1 (16.7) n (%) | Number of participants with an SAE ([1]; 0.6 mg/d 7 d): 0 n (%) | Number of participants with at least one TEAE ([1]; 0.6 mg/d 7 d): 3 (50.0) n (%) | Participants with TEAE: Mild ([1]; 0.6 mg/d 7 d): 2 (33.3) n (%) | Participants with TEAE: Moderate ([1]; 0.6 mg/d 7 d): 1 (16.7) n (%) | Participants with TEAE: Not related ([1]; 0.6 mg/d 7 d): 1 (16.7) n (%) | Participants with TEAE: Related ([1]; 0.6 mg/d 7 d): 3 (50.0) n (%) | Participants with TEAE: Severe ([1]; 0.6 mg/d 7 d): 0 n (%) | TEAEs by SOC: Eye disorder ([1]; 0.6 mg/d 7 d): 0 n (%) | TEAEs by SOC: Gastrointestinal disorders ([1]; 0.6 mg/d 7 d): 0 n (%) | TEAEs by SOC: General disorders and administration site conditions ([1]; 0.6 mg/d 7 d): 1 (16.7) n (%) | TEAEs by SOC: Investigations ([1]; 0.6 mg/d 7 d): 0 n (%) | TEAEs by SOC: Metabolism and nutrition disorders ([1]; 0.6 mg/d 7 d): 1 (16.7) n (%) | TEAEs by SOC: Nervous system disorders ([1]; 0.6 mg/d 7 d): 2 (33.3) n (%) | TEAEs by SOC: Skin and subcutaneous tissue disorders ([1]; 0.6 mg/d 7 d): 1 (16.7) n (%) | Number of TEAEs ([1]; 2 mg/d 7 d): 3 E | Number of participants with a TEAE leading to discontinuation ([1]; 2 mg/d 7 d): 0 n (%) | Number of participants with an SAE ([1]; 2 mg/d 7 d): 0 n (%) | Number of participants with at least one TEAE ([1]; 2 mg/d 7 d): 2 (33.3) n (%) | Participants with TEAE: Mild ([1]; 2 mg/d 7 d): 2 (33.3) n (%) | Participants with TEAE: Moderate ([1]; 2 mg/d 7 d): 0 n (%) | Participants with TEAE: Not related ([1]; 2 mg/d 7 d): 1 (16.7) n (%) | Participants with TEAE: Severe ([1]; 2 mg/d 7 d): 0 n (%) | TEAEs by SOC: Eye disorder ([1]; 2 mg/d 7 d): 0 n (%) | TEAEs by SOC: Gastrointestinal disorders ([1]; 2 mg/d 7 d): 1 (16.7) n (%) | TEAEs by SOC: General disorders and administration site conditions ([1]; 2 mg/d 7 d): 0 n (%) | TEAEs by SOC: Investigations ([1]; 2 mg/d 7 d): 1 (16.7) n (%) | TEAEs by SOC: Metabolism and nutrition disorders ([1]; 2 mg/d 7 d): 0 n (%) | TEAEs by SOC: Nervous system disorders ([1]; 2 mg/d 7 d): 0 n (%) | TEAEs by SOC: Skin and subcutaneous tissue disorders ([1]; 2 mg/d 7 d): 0 n (%) | Number of TEAEs ([1]; 6 mg/d 7 d): 6 E | Number of participants with a TEAE leading to discontinuation ([1]; 6 mg/d 7 d): 0 n (%) | Number of participants with an SAE ([1]; 6 mg/d 7 d): 0 n (%) | Number of participants with at least one TEAE ([1]; 6 mg/d 7 d): 2 (33.3) n (%) | Participants with TEAE: Mild ([1]; 6 mg/d 7 d): 2 (33.3) n (%) | Participants with TEAE: Moderate ([1]; 6 mg/d 7 d): 1 (16.7) n (%) | Participants with TEAE: Not related ([1]; 6 mg/d 7 d): 2 (33.3) n (%) | Participants with TEAE: Related ([1]; 6 mg/d 7 d): 2 (33.3) n (%) | Participants with TEAE: Severe ([1]; 6 mg/d 7 d): 0 n (%) | TEAEs by SOC: Eye disorder ([1]; 6 mg/d 7 d): 1 (16.7) n (%) | TEAEs by SOC: Gastrointestinal disorders ([1]; 6 mg/d 7 d): 0 n (%) | TEAEs by SOC: General disorders and administration site conditions ([1]; 6 mg/d 7 d): 1 (16.7) n (%) | TEAEs by SOC: Investigations ([1]; 6 mg/d 7 d): 0 n (%) | TEAEs by SOC: Metabolism and nutrition disorders ([1]; 6 mg/d 7 d): 0 n (%) | TEAEs by SOC: Nervous system disorders ([1]; 6 mg/d 7 d): 2 (33.3) n (%) | TEAEs by SOC: Skin and subcutaneous tissue disorders ([1]; 6 mg/d 7 d): 1 (16.7) n (%) | genotoxic or mutagenic activity [2]: did not show any genotoxic or mutagenic activity | THC impairment in reality testing [3]: inhibited | % Inhibition ([3]; Impairment of reality testing): 100% | ID100 ([3]; Impairment of reality testing): ≤ 0.015 mg/kg | THC's effects on food intake [4]: inhibited | % Inhibition ([4]; Increase in food intake): 100% | ID50 ([4]; Increase in food intake): 0.015 mg/kg | ID100 ([4]; Increase in food intake): 0.05 mg/kg | Percent inhibition of control specific binding [5]: 20%
